These results are taken from patent US9447156B2, “Methods and compositions for inhibiting neddylation of proteins” (St. Jude Children's Research Hospital, priority 2011, dated 2016).

The target in assay [1] is T1, yDcn1^P (Saccharomyces cerevisiae, UniProt Q12395).
T1 construct: made in house; host or cells: E. coli
T1 sequence (Q12395 70-269): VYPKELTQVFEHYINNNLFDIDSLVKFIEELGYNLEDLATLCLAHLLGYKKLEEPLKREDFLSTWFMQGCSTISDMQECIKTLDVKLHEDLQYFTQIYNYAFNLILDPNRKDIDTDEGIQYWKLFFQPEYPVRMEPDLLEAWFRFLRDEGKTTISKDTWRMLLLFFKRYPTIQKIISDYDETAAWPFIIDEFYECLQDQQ
Description: ITC binding of Ubc12 peptides to yDcn1^P. More on the design: species or system S. cerevisiae. As to conditions: for ΔH / ΔS: ITC, protein yDcn1^P; for ΔH: change in enthalpy; for ΔS: change in entropy. The method, then: (§1) Protein samples were buffer matched by desalting over a NAP-5 column (GE Healthcare) into 50 mM Hepes, 125 mM NaCl, 1 mM BME, pH 7.0 (ITC buffer). Peptides were dissolved by weight to a final concentration of 10 mM in ITC buffer and diluted further in ITC buffer as required for the experiments. […] The peptide ligands (4 mM) were constantly injected (1.5 μl). The interval time between each injection was 3 minutes and the duration of each injection was 3 seconds. For titrations involving hE1 and yE1, proteins were placed into the sample cell at a final concentration of 25 μM at 22° C. Peptide ligands (250 μM) were constantly injected (2.5 μl). The interval time between each injection was three minutes and the duration of each injection was 5 seconds. For hCul1^ctd-Rbx1:hDcn1^P binding, proteins were buffer matched by desalting over a NAP-5 column in 25 mM Tris, 0.1 M NaCl, 1 mM BME, pH 7.6. hCul1^ctd-Rbx1 was placed into the sample cell at a final concentration of 55 μM at 22° C. […]) was constantly injected (2.5 μl). The interval time between each injection was 3 minutes and the duration of each injection was 5 seconds.

The target of assay [2] is T2, yE1 for yNedd8 (Ula1Uba3) (Saccharomyces cerevisiae, UniProt Q99344).
T2 construct: made in house; host or cells: E. coli
T2 sequence (Q99344 1-299): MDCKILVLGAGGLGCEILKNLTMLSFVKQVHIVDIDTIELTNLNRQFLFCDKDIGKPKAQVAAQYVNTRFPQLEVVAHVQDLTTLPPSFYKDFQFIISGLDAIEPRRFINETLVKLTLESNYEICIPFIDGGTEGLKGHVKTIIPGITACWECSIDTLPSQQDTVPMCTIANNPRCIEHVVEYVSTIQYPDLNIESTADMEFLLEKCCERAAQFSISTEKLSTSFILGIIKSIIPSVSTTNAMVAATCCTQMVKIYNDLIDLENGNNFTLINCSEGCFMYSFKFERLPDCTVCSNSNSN
T2 sequence (Q12059 1-462 partner): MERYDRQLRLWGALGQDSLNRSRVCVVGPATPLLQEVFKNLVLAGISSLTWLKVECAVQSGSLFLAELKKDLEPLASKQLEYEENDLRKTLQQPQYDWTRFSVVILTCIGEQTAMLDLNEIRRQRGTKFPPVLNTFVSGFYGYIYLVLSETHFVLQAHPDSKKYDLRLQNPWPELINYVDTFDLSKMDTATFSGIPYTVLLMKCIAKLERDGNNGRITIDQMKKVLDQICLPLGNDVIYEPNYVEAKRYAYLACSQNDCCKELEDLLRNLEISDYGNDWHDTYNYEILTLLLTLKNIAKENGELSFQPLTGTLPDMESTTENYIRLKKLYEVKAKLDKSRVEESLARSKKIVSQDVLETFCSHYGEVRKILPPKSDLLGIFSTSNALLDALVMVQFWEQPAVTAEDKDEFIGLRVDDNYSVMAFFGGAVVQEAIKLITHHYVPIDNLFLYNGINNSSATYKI
The experiment in a line: ITC binding of Ubc12 peptides to yE1. More on the design: species or system S. cerevisiae. Conditions: for ΔH / ΔS: ITC, protein yE1; for ΔH: change in enthalpy; for ΔS: change in entropy. The method, then: as §1

Assay [3] concerns the target T3, hDcn5^P (Homo sapiens, UniProt Q9BTE7).
T3 construct: human Dcn1 family members 1-5 (also called DCUND1-DCUND5)
T3 sequence (Q9BTE7 47-237): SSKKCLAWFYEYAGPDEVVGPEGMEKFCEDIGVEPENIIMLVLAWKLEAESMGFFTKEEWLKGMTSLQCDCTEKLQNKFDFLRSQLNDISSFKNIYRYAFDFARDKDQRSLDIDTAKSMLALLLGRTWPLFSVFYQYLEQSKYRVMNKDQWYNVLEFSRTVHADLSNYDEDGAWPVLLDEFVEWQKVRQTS
Description: ITC binding of peptides to hDcn5^P. As to conditions: Table 29, peptides with amidated carboxy-terminus. As for the experimental part: Protein samples were buffer matched by desalting over a NAP-5 column (GE Healthcare) into 50 mM Hepes, 125 mM NaCl, 1 mM BME, pH 7.0 (ITC buffer). Peptides were dissolved by weight to a final concentration of 10 mM in ITC buffer and diluted further in ITC buffer as required for the experiments. Measurements were performed using a MicroCal ITC200. hDcn1^P or yDcn1^P were placed into the sample cell at a final concentration of 400 μM at 18° C. The peptide ligands (4 mM) were constantly injected (1.5 μl). The interval time between each injection was 3 minutes and the duration of each injection was 3 seconds. For titrations involving hE1 and yE1, proteins were placed into the sample cell at a final concentration of 25 μM at 22° C. Peptide ligands (250 μM) were constantly injected (2.5 μl). The interval time between each injection was three minutes and the duration of each injection was 5 seconds. For hCul1^ctd-Rbx1:hDcn1^P binding, proteins were buffer matched by desalting over a NAP-5 column in 25 mM Tris, 0.1 M NaCl, 1 mM BME, pH 7.6. hCul1^ctd-Rbx1 was placed into the sample cell at a final concentration of 55 μM at 22° C. hDcn1^P (550 μM) was constantly injected (2.5 μl). The interval time between each injection was 3 minutes and the duration of each injection was 5 seconds. Obtained spectra were evaluated using Origin (V 7.0) to determine heats of binding and Kd values. […]

The target of assay [4] is T4, hDcn3^P (Homo sapiens, UniProt Q8IWE4).
T4 sequence (Q8IWE4 86-304): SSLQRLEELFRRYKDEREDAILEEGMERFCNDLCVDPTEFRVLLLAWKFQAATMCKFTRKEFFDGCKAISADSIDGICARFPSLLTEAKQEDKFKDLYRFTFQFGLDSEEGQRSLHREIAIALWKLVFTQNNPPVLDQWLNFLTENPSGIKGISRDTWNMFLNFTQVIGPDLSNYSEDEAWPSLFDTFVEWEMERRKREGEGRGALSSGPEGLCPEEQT
Description: ITC binding of peptides to hDcn3^P. As for the experimental part: (§2) Protein samples were buffer matched by desalting over a NAP-5 column (GE Healthcare) into 50 mM Hepes, 125 mM NaCl, 1 mM BME, pH 7.0 (ITC buffer). Peptides were dissolved by weight to a final concentration of 10 mM in ITC buffer and diluted further in ITC buffer as required for the experiments. Measurements were performed using a MicroCal ITC200. hDcn1^P or yDcn1^P were placed into the sample cell at a final concentration of 400 μM at 18° C. The peptide ligands (4 mM) were constantly injected (1.5 μl). The interval time between each injection was 3 minutes and the duration of each injection was 3 seconds. For titrations involving hE1 and yE1, proteins were placed into the sample cell at a final concentration of 25 μM at 22° C. Peptide ligands (250 μM) were constantly injected (2.5 μl). The interval time between each injection was three minutes and the duration of each injection was 5 seconds. For hCul1^ctd-Rbx1:hDcn1^P binding, proteins were buffer matched by desalting over a NAP-5 column in 25 mM Tris, 0.1 M NaCl, 1 mM BME, pH 7.6. hCul1^ctd-Rbx1 was placed into the sample cell at a final concentration of 55 μM at 22° C. hDcn1^P (550 μM) was constantly injected (2.5 μl). The interval time between each injection was 3 minutes and the duration of each injection was 5 seconds. Obtained spectra were evaluated using Origin (V 7.0) to determine heats of binding and Kd values.
(§3) The affinity of various peptides for hDcn1^P, hDcn2^P, hDcn3^P, hDcn4^P, and hDcn5^P was tested using isothermal titration calorimetry as described in Example 1 and is provided in Table 29.

Assay [5] concerns the target T5, hDcn1^P (Homo sapiens, UniProt Q96GG9).
T5 construct: hDcn1^P corresponds to residues 62 to the C-terminal residue 259 of hDcn1; GST (cleaved yes); made in house; host or cells: E. coli BL21(DE3)Gold
The experiment in a line: ITC binding of Ubc12/Ube2f peptides to hDcn1^P. Conditions: Example 3. The method, then: as §2, §3

In assay [6] the target is T6, hDcn2^P (Homo sapiens, UniProt Q6PH85).
T6 construct: human Dcn1 family members 1-5 (also called DCUND1-DCUND5)
T6 sequence (Q6PH85 62-259): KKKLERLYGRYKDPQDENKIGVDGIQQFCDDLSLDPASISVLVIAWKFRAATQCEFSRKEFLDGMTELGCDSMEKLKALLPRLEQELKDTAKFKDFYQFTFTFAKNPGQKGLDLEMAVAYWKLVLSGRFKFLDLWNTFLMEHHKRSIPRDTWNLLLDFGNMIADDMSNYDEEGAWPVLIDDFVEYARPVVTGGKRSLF
The experiment in a line: ITC binding of peptides to hDcn2^P. Conditions: Example 3. As for the experimental part:
as §2, §3

Residues, ends and D or L forms follow the SMILES beside them. No end group written: not given here. *: point of attachment. For = O=C*

T5 sequence (Q96GG9 62-259): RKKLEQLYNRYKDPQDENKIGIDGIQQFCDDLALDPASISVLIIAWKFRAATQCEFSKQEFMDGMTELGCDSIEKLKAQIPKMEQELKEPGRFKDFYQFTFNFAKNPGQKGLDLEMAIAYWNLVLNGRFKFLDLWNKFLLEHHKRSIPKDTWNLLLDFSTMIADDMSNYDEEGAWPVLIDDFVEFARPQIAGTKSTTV

For the molecule `CC[C@H](C)[C@H](NC(=O)[C@H](CO)NC(=O)[C@H](CO)NC(=O)[C@H](CO)NC(=O)[C@H](CC(N)=O)NC(=O)[C@H](CCC(=O)O)NC(=O)[C@H](CC(N)=O)NC(=O)[C@H](CCC(=O)O)NC(=O)[C@H](CCCCN)NC(=O)[C@H](CCC(N)=O)NC(=O)[C@H](CCCCN)NC(=O)[C@H](CCCCN)NC(=O)[C@H](CCCCN)NC(=O)[C@H](CCC(N)=O)NC(=O)[C@H](CC(C)C)NC(=O)[C@H](CCC(N)=O)NC(=O)[C@H](CCCNC(=N)N)NC(=O)[C@H](CC(C)C)NC(=O)[C@H](CCCCN)NC(=O)[C@H](CC(C)C)NC(=O)[C@H](CCSC)NC=O)C(=O)N[C@@H](CCC(N)=O)C(=O)N1CCC[C@H]1C(=O)N[C@@H](CC(N)=O)C(N)=O` [Formyl-yUbc12^1-24] (For-MLKLRQLQKKKQKENENSSSIQPN-NH2), in assay [1], the ΔH is listed as 2,824 cal/mol and the ΔS was determined as 33.4 cal/mol/deg.

For the molecule “Ac-LKLRQLQKKKQKENENSSSIQPN-NH2 [Acetyl-yUbc12^2-24]”, in assay [1], the Kd (as a rule, the equilibrium constant for the complex coming apart) is greater than 37000 nM; the ΔH is 3,761 cal/mol; the ΔS was 33.4 cal/mol/deg. Also, in assay [2], the Kd amounted to 1580 nM, the ΔH is listed as −9,625 cal/mol and the ΔS is recorded as −7.21 cal/mol/deg.

`CC[C@H](C)[C@H](NC(=O)[C@H](CCSC)NC(C)=O)C(=O)N[C@@H](CCCCN)C(=O)N[C@@H](CC(C)C)C(=O)N[C@@H](Cc1ccccc1)C(=O)N[C@@H](CO)C(=O)N[C@@H](CC(C)C)C(=O)N[C@@H](CCCCN)C(=O)N[C@@H](CCC(N)=O)C(=O)N[C@@H](CCC(N)=O)C(=O)N[C@@H](CCCCN)C(=O)N[C@@H](CCCCN)C(N)=O` [hUbc12^Ac1−12]: in assay [3], the Kd is greater than 30000 nM.

“hUbe2fAcl-25: N-terminally acetylated human Ube2f residues 1-25 (Ac-MLTLASKLKRDDGLKGSRTAATASD-NH2)”: in assay [4] (Example 3), the “affinity for Dcn3 (comparison in words)” value is recorded as “greatest affinity” and the “binding specificity for Dcn3 over other co-E3 proteins” value was “fairly specific”.

Consider “MLTLASKLKRDDGLKGSRTAATASD-NH2 [hUbe2f^1−25]”, for which, in assay [4] (Table 29, peptides with amidated carboxy-terminus), the Kd is greater than 400000 nM.

In the case of “Ac-MLKLRQLQKKKQKENENSSSIQPN-NH2 [yUbc12Ac1-24]”, in assay [5], the “affinity for Dcn1 (comparison in words)” value was “greatest affinity”. In assay [1], the ΔH is recorded as 4,145 cal/mol and the ΔS worked out at 43.6 cal/mol/deg. Further, in assay [2], binding was characterised by a dissociation constant (Kd) of 16 nM, the ΔH is −11,260 cal/mol and the ΔS was −3.8 cal/mol/deg. The “affinity for Dcn2 (comparison in words)” value in assay [6] is recorded as “greatest affinity”.

As for “H-MLKLRQLQKKKQKENENSSSIQPN-NH2 [yUbc12^1-24]”, in assay [1], the Kd is greater than 40000 nM, the ΔH is reported as 3,777 cal/mol and the ΔS came to 33.4 cal/mol/deg. In addition, in assay [2], the Kd came out at 70 nM, the ΔH is −8,571 cal/mol and the ΔS is given as 2.65 cal/mol/deg.

On to “hUbc12Ac1-26: N-terminally acetylated peptide of residues 1-26 of human Ubc12 (Ac-MIKLFSLKQQKKEEESAGGTKGSSKK-NH2)”, for which, in assay [5], the “affinity for Dcn1 (comparison in words)” value is listed as “greatest affinity”. The “affinity for Dcn2 (comparison in words)” value in assay [6] is recorded as “greatest affinity”.
